Assay results from US11771699B2, “Combined treatment with a TLR7 agonist and an HBV capsid assembly inhibitor” (Hoffmann-La Roche Inc., priority 2015, dated 2023).
Like-named read-outs stand apart in the source and are kept apart here.

Tests used:
HBV = HBV infected transgenic mouse or humanized mouse models; cited from earlier work
HBV (AAV-HBV) = format: in vivo, C57BL/6 mice; details: for reduction in HBV DNA: Compound 2 12 mg/kg QD; for effect on HBV DNA: Example 7, FIG. 4-6; for effect on HBV DNA / effect on HBsAg: single treatment, 6 weeks PO, Compound 5 12 mg/kg QD; for effect on HBsAg: Example 7, FIG. 5-6
Text: 4-week old male C57BL/6 mice, specific pathogen free, were purchased from Shanghai Laboratory Animal Center of Chinese Academy of Sciences (SLAC) and housed in an animal care facility in individually ventilated cages under controlled temperature and light conditions following the Institutional Animal Care guidelines. AAV/HBV virus was purchased from Beijing FivePlus Molecular Medicine Institute (Beijing, China). This recombinant virus carries 1.3 copies of the HBV genome, which was packaged in AAV serotype 8 (AAV8) capsids. C57BL/6 mice were injected with […], of recombinant virus, diluted in saline buffer, through tail vein injection. The mice were bled at days 7 and 14 post injection to monitor HBV surface antigen (HBsAg), HBV e antigen (HBeAg), HBs antibody (HBsAb) and HBV genomic DNA in serum, and then were randomly grouped according to these HBV biomarkers.
Measurement of HBV Biomarkers
Serum HBsAg and HBeAg was measured using CLIA kits (Autobio Diagnostics Co., Ltd, Zhengzhou, China) according to the manufacturer's instructions. The lower limit of detection for HBsAg and HBeAg was 0.1 ng/mL and 0.25 NCU/mL (national clinical unit/mL) respectively. Serum dilution of 100-fold (for HBsAg) or 500-fold (for HBeAg) was used to obtain values within the linear range of the standard curve. Serum HBV DNA was extracted using a MagNA Pure 96 DNA and Viral NA Small Volume Kit (Roche) following the manufacturer's instructions. The DNA samples were analyzed by real-time quantitative PCR (qPCR) using a HBV-specific primer and probe set for specific amplification and detection of a 128 bp HBV genome region from the nucleotide 2969 to 3096. The sequences of the primers and probe are shown as follows: […]
Anti-HBs in the serum was measured on day 24 after the treatment ended using Anti-HBs CLIA kits (Autobio Diagnostics Co., Ltd, Zhengzhou, China) following the manufacturer's instructions. The serum samples were 3-fold diluted and 50 μL of the diluted samples were used for the assay.
10 mg/mL of Compound 1 and 1.2 mg/mL of Compound 2 was formulated as an inclusion complex with 2% Klucel LF, 0.1% Polysorbate 80, and 0.1% Parabens in water. All the mice were orally dosed for a total of 6 weeks followed by a 2-week off-treatment period. In one single-treatment control study, the five mice of the group Compound 1 were treated with Compound 1 at 100 mg/kg every other day (QOD). The vehicle group was treated with an equivalent volume of oral-QD vehicle placebo (2% Klucel LF, 0.1% Polysorbate 80, and 0.1% Parabens in water). In the combination therapy study, the five mice of the group Compound 2 were administered at 12 mg/kg orally once daily (QD). The group Combo received 100 mg/kg of Compound 1 QOD plus 12 mg/kg Compound 2 QD. The vehicle group was treated with an equivalent volume of oral-QD vehicle placebo (2% Klucel LF, 0.1% Polysorbate 80, and 0.1% Parabens in water).
In another independent study, more combinations of a TLR7 agonist plus a Capsid inhibitor and corresponding single compound treatments were tested (summarized in Table 2) using the same AAV-HBV mouse model and method of measurement of HBV biomarkers described in Example 5.
In this study, eight mice were recruited in each group, and animals received the first dose on day 28 post AAV-HBV infection. The tested combinations included Compound 1 plus Compound 4, Compound 3 plus Compound 4, and Compound 1 plus Compound 5.

human TLR7 = molecular target: T1, human TLR7 (Homo sapiens, UniProt Q9NYK1); assay: HEK293-Blue-hTLR-7 cells assay (NF-κB/AP-1 SEAP reporter); format: cell-based; details: 20 hours incubation, read-out: TLR7 agonism activity in HEK293-hTLR-7 assay
T1 sequence (Q9NYK1 27-1049): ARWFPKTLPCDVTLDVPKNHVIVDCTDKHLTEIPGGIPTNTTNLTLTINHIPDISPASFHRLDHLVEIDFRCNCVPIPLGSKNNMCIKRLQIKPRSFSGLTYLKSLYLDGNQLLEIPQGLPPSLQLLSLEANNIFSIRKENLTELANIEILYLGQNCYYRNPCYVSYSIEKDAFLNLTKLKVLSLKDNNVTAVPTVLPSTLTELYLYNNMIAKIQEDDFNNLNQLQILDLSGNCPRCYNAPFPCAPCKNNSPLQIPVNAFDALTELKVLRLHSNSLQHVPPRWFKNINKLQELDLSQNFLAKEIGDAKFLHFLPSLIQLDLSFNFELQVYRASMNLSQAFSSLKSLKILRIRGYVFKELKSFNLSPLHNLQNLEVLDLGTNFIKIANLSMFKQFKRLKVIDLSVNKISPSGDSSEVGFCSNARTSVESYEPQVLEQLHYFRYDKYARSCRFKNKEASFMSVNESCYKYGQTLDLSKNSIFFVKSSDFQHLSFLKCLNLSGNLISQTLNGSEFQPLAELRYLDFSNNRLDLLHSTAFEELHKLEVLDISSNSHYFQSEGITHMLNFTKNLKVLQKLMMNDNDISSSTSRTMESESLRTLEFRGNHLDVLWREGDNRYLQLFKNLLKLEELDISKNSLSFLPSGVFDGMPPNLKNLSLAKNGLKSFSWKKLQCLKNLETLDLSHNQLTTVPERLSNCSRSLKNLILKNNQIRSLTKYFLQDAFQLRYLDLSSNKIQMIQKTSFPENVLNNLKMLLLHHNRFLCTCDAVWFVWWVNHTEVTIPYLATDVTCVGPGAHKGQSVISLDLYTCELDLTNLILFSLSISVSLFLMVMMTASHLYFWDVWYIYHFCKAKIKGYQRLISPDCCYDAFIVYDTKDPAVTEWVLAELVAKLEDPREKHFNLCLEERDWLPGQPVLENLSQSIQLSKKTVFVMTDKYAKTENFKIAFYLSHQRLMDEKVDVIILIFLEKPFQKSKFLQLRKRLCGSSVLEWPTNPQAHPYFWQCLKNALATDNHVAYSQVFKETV
Text: HEK293-Blue-hTLR-7 Cells Assay:
A stable HEK293-Blue-hTLR-7 cell line was purchased from InvivoGen (Cat.#: hkb-htlr7, San Diego, Calif., USA). These cells were designed for studying the stimulation of human TLR7 by monitoring the activation of NF-κB. A SEAP (secreted embryonic alkaline phosphatase) reporter gene was placed under the control of the IFN-β[…] minimal promoter fused to five NF-κB and AP-1-binding sites. The SEAP was induced by activating NF-κB and AP-1 via stimulating HEK-Blue hTLR7 cells with TLR7 ligands. Therefore the reporter expression was regulated by the NF-κB promoter upon stimulation of human TLR7 for 20 hours. The cell culture supernatant SEAP reporter activity was determined using QUANTI-Blue™ kit (Cat.#: rep-qb1, Invivogen, San Diego, Ca, USA) at a wavelength of 640 nm, a detection medium that turns purple or blue in the presence of alkaline phosphatase.
HEK293-Blue-hTLR7 cells were incubated at a density of 250,000˜450,000 cells/mL in a volume of 180 μL in a 96-well plate in Dulbecco's Modified Eagle's medium (DMEM) containing 4.5 g/L glucose, 50 U/mL penicillin, […], […], 2 mM L-glutamine, 10% (v/v) heat-inactivated fetal bovine serum for 24 h. […]

[1] = Example 6, FIG. 1, serum, after a 6-week treatment, oral, Compound 1 100 mg/kg QOD
[2] = Example 6, FIG. 1, serum, after a 6-week treatment, Compound 2 12 mg/kg QD oral
[3] = Compound 4 20 mg/kg QD, Compound 3 30 mg/kg QOD
[4] = Example 8, FIG. 8, serum, end of the 6-week treatment, Compound 8 300 mg/kg QOD PO

COC(=O)C1=C(C)NC(c2ncc(F)cc2F)=N[C@H]1c1ccc(F)cc1Cl [Bay 41-4109]
in vivo efficacy (HBV DNA) (HBV): in vivo efficacy with HBV DNA reduction

CC[C@H](OC(C)=O)[C@@H]1C[C@@H](O)[C@H](n2c(=O)sc3cnc(N)nc32)O1 [Compound 1, [(1S)-1-[(2S,4R,5R)-5-(5-amino-2-oxo-thiazolo[4,5-d]pyrimidin-3-yl)-4-hydroxy-tetrahydrofuran-2-yl]propyl] acetate]
reduction in HBsAg (HBV (AAV-HBV); [1]): more than 1 log
reduction in HBV DNA (HBV (AAV-HBV); [1]): more than 2 log

CCOC(=O)C1=C(CN2CCN3C(=O)N(CC(C)(C)C(=O)O)C[C@@H]3C2)NC(c2nccs2)=N[C@H]1c1cccc(F)c1Cl [Compound 2, 3-[(8aS)-7-[[(4R)-4-(2-chloro-3-fluoro-phenyl)-5-ethoxycarbonyl-2-thiazol-2-yl-1,4-dihydropyrimidin-6-yl]methyl]-3-oxo-5,6,8,8a-tetrahydro-1H-imidazo[1,5-a]pyrazin-2-yl]-2,2-dimethyl-propanoic acid]
reduction in HBV DNA (HBV (AAV-HBV); [1]): more than 3 log
HBV DNA level (HBV (AAV-HBV); [2]): below the LLQ
HBsAg level (effect in words) (HBV (AAV-HBV); [2]): moderately reduced

CC(=O)O[C@@H](C1CC1)[C@H]1O[C@@H](n2c(=O)sc3cnc(N)nc32)CS1 [Compound 3, [(S)-[(2S,5R)-5-(5-amino-2-oxo-thiazolo[4,5-d]pyrimidin-3-yl)-1,3-oxathiolan-2-yl]-cyclopropyl-methyl] acetate]
effect on HBV DNA (HBV (AAV-HBV); [3]): reduced
effect on HBsAg (HBV (AAV-HBV); Compound 3 30 mg/kg QOD): reduced

CCOC(=O)C1=C(CN2CCN3C(=O)N(CC(C)(C)C(=O)O)C[C@@H]3C2)NC(c2nccs2)=N[C@H]1c1cccc(F)c1C [Compound 4, 3-[(8aS)-7-[[(4S)-5-ethoxycarbonyl-4-(3-fluoro-2-methyl-phenyl)-2-thiazol-2-yl-1,4-dihydropyrimidin-6-yl]methyl]-3-oxo-5,6,8,8a-tetrahydro-1H-imidazo[1,5-a]pyrazin-2-yl]-2,2-dimethyl-propanoic acid]
effect on HBV DNA (HBV (AAV-HBV); [3]): inhibited
HBsAg reduction (HBV (AAV-HBV); Example 7, FIG. 4 and 5, serum, end of 6-week treatment, PO, Compound 1 100 mg/kg QOD, Compound 3 30 mg/kg QOD, Compound 4 20 mg/kg QD): 2 log

COC(=O)C1=C(CN2[C@@H]3C[C@H](CC(=O)O)C[C@H]2C(F)(F)C3)NC(c2nccs2)=N[C@H]1c1cccc(F)c1Cl [Compound 5, 2-[(1R,3S,5S)-8-[[(4R)-4-(2-chloro-3-fluoro-phenyl)-5-methoxycarbonyl-2-thiazol-2-yl-1,4-dihydropyrimidin-6-yl]methyl]-6,6-difluoro-8-azabicyclo[3.2.1]octan-3-yl]acetic acid]
effect on HBV DNA (HBV (AAV-HBV); [3]): reduced
effect on HBsAg (HBV (AAV-HBV); Compound 3 30 mg/kg QOD): reduced

CC(=O)O[C@@H]1C[C@@H](CO)O[C@H]1n1c(=O)sc2cnc(N)nc21 [Compound 8, 5-amino-3-(2′-O-acetyl-3′-deoxy-β-D-ribofuranosyl)-3H-thiazolo[4,5-d]pyrimidin-2-one]
HBV DNA reduction (HBV (AAV-HBV); [4]): about 2 log
HBsAg reduction (HBV (AAV-HBV); [4]): ~1.5 log

CC[C@H](O)[C@@H]1C[C@@H](O)[C@H](n2c(=O)sc3c(=O)[nH]c(N)nc32)O1 [compound 11]
EC50 (human TLR7): 72 µM
